Experimental data published in ChEMBL document CHEMBL5316270 (J Med Chem, 2023).
The source made the active and inactive calls. The calls are words filed in the database; no cut-off is given here.

How the values were obtained:
mTORC1 [1] = biological target: T1, mTORC1 (Homo sapiens, UniProt P42345+Q8N122+Q9BVC4); format: cell-based, MDA-MB-468
mTORC1 [2] = biological target: T1, mTORC1; format: cell-based, MDA-MB-468; remark: listed apart in the source
cells = format: cell-based; conditions: Homo sapiens, MDA-MB-468
Mus musculus [3] = test: In vivo inhibition of mTORC1 in human MCF7 cells harboring PIK3CA […] mutation xenografted in Balb/c nude mouse assessed as inhibition of tumor p4EBP1 level at 5 mg/kg,po and measured upto 48 hrs by MSD analysis; format: functional, organism-based
Mus musculus [4] = test: In vivo inhibition of mTORC1 in human MCF7 cells harboring PIK3CA […] mutation xenografted in Balb/c nude mouse assessed as inhibition of tumor p4EBP1 level at 1 mg/kg,ip and measured at 4 hrs by MSD analysis; format: functional, organism-based
Mus musculus [5] = test: In vivo inhibition of mTORC1 in human MCF7 cells harboring PIK3CA […] mutation xenografted in Balb/c nude mouse assessed as inhibition of tumor p4EBP1 level at 1 mg/kg,ip and measured after 24 hrs by MSD analysis; format: functional, organism-based
NCI-H2122 [6] = test: Antitumor activity against human NCI-H2122 cells harboring KRAS G12C mutation xenografted in Balb/c nude mouse assessed as reduction in tumor volume at 100 mg/kg,ip qd by caliper measurement analysis; format: functional, organism-based
NCI-H2122 [7] = test: Antitumor activity against human NCI-H2122 cells harboring KRAS G12C mutation xenografted in Balb/c nude mouse assessed as reduction in tumor volume at 100 mg/kg,ip qd co-treated with RMC-627 at 10 mg/kg,ip qw by caliper measurement analysis; format: functional, organism-based
[8] = Toxicity in Balb/c nude mouse xenografted with human NCI-H2122 cells harboring KRAS G12C mutation assessed as body weight loss at 100 mg/kg,ip qd co-treated with RMC-627 at 10 mg/kg,ip qw; format: organism-based; conditions: in vivo
NCI-H2122 [9] = test: Antitumor activity against human NCI-H2122 cells harboring KRAS G12C mutation xenografted in Balb/c nude mouse assessed as induction of apoptosis by measuring caspase-3 level at 100 mg/kg,ip qd co-treated with RMC-627 at 10 mg/kg,ip qw by immunostaining based microscopy; format: functional, organism-based
NCI-H2122 [10] = test: Antitumor activity against human NCI-H2122 cells harboring KRAS G12C mutation xenografted in Balb/c nude mouse assessed as induction of apoptosis by measuring caspase-3 level at 100 mg/kg,ip qd by immunostaining based microscopy; format: functional, organism-based

`CO[C@H]1C[C@@H]2CC[C@@H](C)[C@@](O)(O2)C(=O)C(=O)N2CCCC[C@H]2C(=O)O[C@H]([C@H](C)C[C@@H]2CC[C@@H](OC(=O)NCCOCCOCCOCCOCCOCCOCCOCCOCCC(=O)NCCCCn3nc(-c4ccc5oc(N)nc5c4)c4c(N)ncnc43)[C@H](OC)C2)C[C@@H](OC)[C@H](C)/C=C(\C)[C@@H](O)[C@@H](OC)C(=O)[C@H](C)C[C@H](C)/C=C/C=C/C=C/1C` showed an IC50 (mTORC1 [1]) of 0.49 nM, an IC50 (mTORC1 [2]) of 1.4 nM and an IC50 (cells) of 8.4 nM.
In the case of `CO[C@H]1C[C@@H]2CC[C@@H](C)[C@@](O)(O2)C(=O)C(=O)N2CCCC[C@H]2C(=O)O[C@H]([C@H](C)C[C@@H]2CC[C@@H](OCCO)[C@H](OC)C2)CC(=O)[C@H](C)/C=C(\C)[C@@H](O)[C@@H](OC)C(=O)[C@H](C)C[C@H](C)/C=C/C=C/C=C/1C` [EVEROLIMUS], the IC50 (mTORC1 [2]) is reported as over 1000 nM and the inhibition (Mus musculus [3]) is reported as “inactive”.
In the case of `CO[C@H]1C[C@@H]2CC[C@@H](C)[C@@](O)(O2)C(=O)C(=O)N2CCCC[C@H]2C(=O)O[C@H]([C@H](C)C[C@@H]2CC[C@@H](OC(=O)NCCOCCOCCOCCOCCOCCOCCOCCOCCC(=O)NCCS(=O)(=O)c3ccc(C(=O)N4CCOc5ccc(-c6ccc(N)nc6)cc5C4)c(C)c3F)[C@H](OC)C2)C[C@@H](O)[C@H](C)/C=C(\C)[C@@H](O)[C@@H](OC)C(=O)[C@H](C)C[C@H](C)/C=C/C=C/C=C/1C`, the IC50 (mTORC1 [1]) is reported as 0.19 nM, the IC50 (mTORC1 [2]) is reported as 0.97 nM and the IC50 (cells) is reported as 35 nM.
Work on `CO[C@H]1C[C@@H]2CC[C@@H](C)[C@@](O)(O2)C(=O)C(=O)N2CCCC[C@H]2C(=O)O[C@H]([C@H](C)C[C@@H]2CC[C@@H](OC(=O)NCCOCCOCCOCCOCCOCCOCCOCCOCCC(=O)N3CCc4cc(Cn5nc(-c6ccc7oc(N)nc7c6)c6c(N)ncnc65)ccc4C3)[C@H](OC)C2)C[C@@H](O)[C@H](C)/C=C(\C)[C@@H](O)[C@@H](OC)C(=O)[C@H](C)C[C@H](C)/C=C/C=C/C=C/1C` [RMC-5552] yielded an IC50 (mTORC1 [1]) of 0.17 nM, an IC50 (mTORC1 [2]) of 1.6 nM and an IC50 (cells) of 35 nM.
`CO[C@H]1C[C@@H]2CC[C@@H](C)[C@@](O)(O2)C(=O)C(=O)N2CCCC[C@H]2C(=O)O[C@H]([C@H](C)C[C@@H]2CC[C@@H](OCCCCc3cn(CCOCCOCCOCCOCCOCCOCCOCCOCCC(=O)NCCCCn4nc(-c5ccc6oc(N)nc6c5)c5c(N(C)C)ncnc54)nn3)[C@H](OC)C2)CC(=O)[C@H](C)/C=C(\C)[C@@H](O)[C@@H](OC)C(=O)[C@H](C)C[C@H](C)/C=C/C=C/C=C/1C` gave an IC50 (mTORC1 [2]) of over 1000 nM.
Compound `CC(C)n1nc(-c2cc3cc(O)ccc3[nH]2)c2c(N)ncnc21` has an IC50 (cells) of 38 nM.
For `CC(C)n1nc(-c2ccc3oc(N)nc3c2)c2c(N)ncnc21`, the inhibition (Mus musculus [4]) was “Active” and the inhibition (Mus musculus [5]) was “inactive”.
In the case of `C=CC(=O)N1CCN(c2nc(=O)n(-c3c(C)ccnc3C(C)C)c3nc(-c4c(O)cccc4F)c(F)cc23)[C@@H](C)C1` [SOTORASIB], the Activity (NCI-H2122 [6]) is reported as “inactive”, the Activity (NCI-H2122 [7]) is reported as “Active” and the Activity [8] is reported as “Non-Toxic”. For the same compound, the Activity (NCI-H2122 [9]) was “Active” and the Activity (NCI-H2122 [10]) was “inactive”.
`CO[C@H]1C[C@@H]2CC[C@@H](C)[C@@](O)(O2)C(=O)C(=O)N2CCCC[C@H]2C(=O)O[C@H]([C@H](C)C[C@@H]2CC[C@@H](OC(=O)NCCOCCOCCOCCOCCOCCOCCOCCOCCC(=O)NCCCCn3nc(-c4ccc5oc(N)nc5c4)c4c(N)ncnc43)[C@H](OC)C2)C[C@@H](O)[C@H](C)/C=C(\C)[C@@H](O)[C@@H](OC)C(=O)[C@H](C)C[C@H](C)/C=C/C=C/C=C/1C` gave an IC50 (mTORC1 [1]) of 0.24 nM, an IC50 (mTORC1 [2]) of 1.3 nM and an IC50 (cells) of 13 nM.
